Measured values taken from patent publication US4486411A, “Beta-lactamase inhibiting 6-beta-sulfonyloxypenicillanic acid derivatives” (Pfizer Inc., priority 1981, dated 1984).
Several values for one entry are separate records, joined by “and”; a condition that tells them apart may be missing. Equal entries are not always repeated. Where two headings read alike, the source gives them in different places. Values belong to the compound of their own block, whether it stands above or below them.

Key:
[1] = biological target: Enterobacter cloacae 67B009 beta-lactamase (Enterobacter cloacae, UniProt P05364); assay: Inhibition of cell free beta-lactamase (beta-lactam hydrolysis); assay type: biochemical; conditions: pH 6.5, 37° C.; for inhibition at 66 µM: inhibitor 66 μM; for inhibition at 16.5 µM: inhibitor 16.5 μM
Chain of Enterobacter cloacae 67B009 beta-lactamase (P05364 21-381): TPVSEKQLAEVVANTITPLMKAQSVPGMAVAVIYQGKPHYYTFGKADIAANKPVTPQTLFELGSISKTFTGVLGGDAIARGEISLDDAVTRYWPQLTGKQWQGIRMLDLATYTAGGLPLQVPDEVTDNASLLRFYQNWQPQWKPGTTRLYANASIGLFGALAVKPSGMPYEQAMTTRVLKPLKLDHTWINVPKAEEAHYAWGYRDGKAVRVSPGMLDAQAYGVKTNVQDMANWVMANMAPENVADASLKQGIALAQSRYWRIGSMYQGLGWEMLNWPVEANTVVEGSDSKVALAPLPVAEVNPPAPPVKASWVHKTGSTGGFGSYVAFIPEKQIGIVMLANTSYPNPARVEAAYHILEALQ
Procedure: (§1) The compounds of the present invention are also evaluated in vitro by their ability to inhibit the hydrolysis of certain beta-lactam antibiotics by beta-lactamase enzymes. The hydrolysis of ampicillin and penicillin G was determined by the microiodometric method of Novick [Biochem. J. 83, 236 (1962)].
(§2) Cephaloridine hydrolysis was measured by following the decrease in ultraviolet absorbance at 255 nm [O'Callaghan et al., Antimicrob. Agents Chemother. 1968, pp. 57-63 (1969)]. Conditions for both assays were idential: 0.5 M potassium phosphate, pH 6.5 and 37° C. Reactions were initiated by the addition of the cell-free beta-lactamase, except in the case of preincubation experiments in which the inhibitor and enzyme were incubated together in the assay mixture for 10 minutes before initiation of the reaction by addition of substrate. With the cell-free extracts of Staphylococcus aureus, Escherichia coli, Klebsiella pneumoniae and Pseudomonas aeruginosa, the substrate was ampicillin at 33 micro M (13 microg./ml.). Typical specific activities of the beta-lactamase preparations were, respectively, 6,019, 88,970, 260 and 76 micromol/hr. per mg. of protein.
(§3) Cell-free extracts were prepared by sonic treatment (using three 30-s bursts at 4° C. except for S. aureus, which was broken with a French press) of cultures grown in brain heart infusion on a rotary shaker incubator. For the S. aureus, P. aeruginosa, and E. cloacae strains, de novo synthesis of beta-lactamase was induced by growing a log-phase culture in the presence of a sublethal concentration of penicillin G at 100, 1,000, and 300 microg./ml, respectively, for 2.5 hr.

[2] = biological target: T1, Staphylococcus aureus 01A400 beta-lactamase (Staphylococcus aureus, UniProt P00807); assay: as above; assay type: biochemical; conditions: pH 6.5, 37° C.; for % Inhibition Beta-Lactam Hydrolysis: listed as R = C6 H5, n = 0
T1 construct: Cell-free extracts were prepared by sonic treatment; endogenous in cells; host or cells: Staphylococcus aureus 01A400, penicillin G-induced culture, cell-free extract (French press)
Procedure: as §1, §2, §3

Enterobacter cloacae = assay: MIC, brain heart infusion agar dilution; assay type: cell-based; conditions: for MIC with Ampicillin / Response with Ampicillin: 1:1 mixture with ampicillin; for MIC: Enterobacter cloacae, 18 h, alone, Table II gives two separate tests
Procedure: (§4) The procedure which is followed is the one recommended by the International Collaborative Study on Antibiotic Sensitivity Testing [Ericcson and Sherris, Acta. Pathologica et Microbiologia Scandinav, Supp. 217, Sections A and B: 64-68 (1971)], and employs brain heart infusion (BHI) agar and the inocula replicating device. Overnight growth tubes are diluted 100 fold for use as the standard inoculum (20,000-10,000 cells in approximately 0.002 ml. are placed on the agar surface; 20 ml. of BHI agar/dish). Twelve 2 fold dilutions of the test compound are employed, with initial concentration of the test drug being 200 mcg./ml. Single colonies are disregarded when reading plates after 18 hrs. at 37° C. The susceptibility (MIC) of the test organism is accepted as the lowest concentration of compound capable of producing complete inhibition of growth as judged by the naked eye. The manner in which the said compounds of the formula I increase the effectiveness of a beta-lactam antibiotic can be appreciated by reference to experiments in which the MIC of a given antibiotic alone, and a compound of the formula I alone, are measured. These MIC's are then compared with the MIC values obtained with a combination of the given antibiotic and the compound of the formula I wherein R^1 is hydrogen. […] The MIC values of combinations are measured using the method described by Barry and Sabath in "Manual of Clinical Microbiology", edited by Lenette, Spaulding and Truant, 2nd Edition, 1974, American Society for Microbiology.
(§5) Results of experiments illustrating that compounds of the formula II enhance the effectiveness of various beta-lactam antibiotics are reported in Tables I and II. […] It is obvious that the combination of compounds of the formula II with beta-lactam antibiotics will show synergistic activity against other bacterial strains, including some freshly isolated in the clinics. Determination of this activity is a matter of routine application of this type of testing.

Escherichia coli 129* = assay: MIC, brain heart infusion agar dilution; assay type: cell-based; conditions: for MIC with Ampicillin: 1:1 mixture with ampicillin; for MIC: Escherichia coli, 18 h, read-out: MIC Alone
Procedure: as §4, §5

Escherichia coli 2* = assay: MIC, brain heart infusion agar dilution; assay type: cell-based; conditions: for MIC with Cefazolin: 1:1 mixture with cefazolin; for MIC: Escherichia coli, 18 h, read-out: MIC Alone
Procedure: as §4, §5

Escherichia coli 266 = assay: MIC, brain heart infusion agar dilution; assay type: cell-based; conditions: for MIC: Escherichia coli, 266, 18 h, alone, Table II gives two separate tests
Procedure: as §4, §5

Klebsiella pneumonia = assay: MIC, brain heart infusion agar dilution; assay type: cell-based; conditions: for MIC with Ampicillin / Response with Ampicillin: 1:1 mixture with ampicillin; for MIC with Cefazolin / Response with Cefazolin: 1:1 mixture with cefazolin; for MIC: Klebsiella pneumoniae, 18 h, alone, Table II gives two separate tests
Procedure: as §4, §5

Proteus morgani = assay: MIC, brain heart infusion agar dilution; assay type: cell-based; conditions: for MIC with Ampicillin: 1:1 mixture with ampicillin; for MIC with Cefazolin / Response with Cefazolin: 1:1 mixture with cefazolin; for MIC: 18 h, alone, Table II gives two separate tests
Procedure: as §4, §5

Pseudomonas aeruginosa = assay: MIC, brain heart infusion agar dilution; assay type: cell-based; conditions: for MIC with Ampicillin: 1:1 mixture with ampicillin; for MIC with Cefazolin: 1:1 mixture with cefazolin; for MIC: Pseudomonas aeruginosa, 18 h, alone, Table II gives two separate tests
Procedure: as §4, §5

Serratia marcescens = assay: MIC, brain heart infusion agar dilution; assay type: cell-based; conditions: for MIC: Serratia marcescens, 18 h, alone, Table II gives two separate tests
Procedure: as §4, §5

[3] = test system: Staphylococcus aureus 400*; assay: MIC, brain heart infusion agar dilution; assay type: cell-based; conditions: resistant variant
Procedure: as §4, §5

Staphylococcus aureus 5 = assay: MIC, brain heart infusion agar dilution; assay type: cell-based; conditions: for MIC with Ampicillin: 1:1 mixture with ampicillin; for MIC: 18 hrs. at 37° C., Table II gives two separate tests
Procedure: as §4, §5

[4] = test system: Escherichia coli 51A129 beta-lactamase; assay: Inhibition of cell free beta-lactamase (beta-lactam hydrolysis); assay type: biochemical; conditions: Ampicillin 33 μM, pH 6.5, 37° C.
Procedure: as §1, §2, §3

[5] = test system: Klebsiella pneumoniae 53A129 beta-lactamase; assay: as above; assay type: biochemical; conditions: Ampicillin 33 μM, pH 6.5, 37° C.
Procedure: as §1, §2, §3

[6] = biological target: T2, Pseudomonas aeruginosa 52A104 beta-lactamase (Pseudomonas aeruginosa, UniProt P24735); assay: as above; assay type: biochemical; conditions: pH 6.5, 37° C.
T2 construct: cell-free sonicate of penicillin G-induced culture
T2 sequence (P24735 27-397): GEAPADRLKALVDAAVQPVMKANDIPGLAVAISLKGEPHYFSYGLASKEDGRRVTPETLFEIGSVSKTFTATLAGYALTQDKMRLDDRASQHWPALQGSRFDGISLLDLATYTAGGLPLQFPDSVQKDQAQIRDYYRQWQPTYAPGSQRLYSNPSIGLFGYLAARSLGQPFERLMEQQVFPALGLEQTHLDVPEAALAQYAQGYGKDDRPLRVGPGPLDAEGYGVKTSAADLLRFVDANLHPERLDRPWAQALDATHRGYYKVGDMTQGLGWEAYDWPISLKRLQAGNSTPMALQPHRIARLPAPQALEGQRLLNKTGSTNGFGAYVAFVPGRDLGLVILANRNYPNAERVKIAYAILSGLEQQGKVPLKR
Procedure: as §1, §2, §3

[7] = pH 6.5, Ampicillin 33 μM, inhibitor 66 μM
[8] = 1:1 mixture with cefazolin, resistant variant
[9] = 1:1 mixture with ampicillin, resistant variant
[10] = Staphylococcus aureus, 5, alone, read-out: MIC Alone

inhibition at 66 µM ([1]; pH 6.5, Penicillin G 33 μM): 0% | inhibition at 66 µM [2, 7]: 36.2%
Structure (SMILES): CC1(C)[C@H](C(=O)O)N2C(=O)[C@@H](OS(=O)(=O)Cc3ccccc3)[C@H]2S1(=O)=O [R = C6 H5, n = 2, Sodium 6-beta-(alpha-Toluene-sulfonyloxy)penicillanate Sulfone]

Structure (SMILES): CC1(C)S[C@@H]2[C@H](OS(C)(=O)=O)C(=O)N2[C@H]1C(=O)O [Sodium Methanesulfonyloxypenicillanate, Sodium 6-beta-(Methanesulfonyloxy)penicillanate]
MIC with Ampicillin (Enterobacter cloacae): 100 µg/mL | Response with Ampicillin (Enterobacter cloacae): Synergy | MIC with Cefazolin (Enterobacter cloacae; 1:1 mixture with cefazolin): > 100 µg/mL | MIC (Enterobacter cloacae): > 200 µg/mL | MIC with Ampicillin (Escherichia coli 129*; resistant variant): > 100 µg/mL | MIC with Cefazolin (Escherichia coli 129*; [8]): 50 µg/mL | Response with Cefazolin (Escherichia coli 129*; [8]): Antagonism | MIC (Escherichia coli 129*): > 200 µg/mL | MIC with Ampicillin (Escherichia coli 2*; [9]): 100 µg/mL | Response with Ampicillin (Escherichia coli 2*; [9]): Additive | MIC with Cefazolin (Escherichia coli 2*; resistant variant): 6.25 µg/mL | MIC (Escherichia coli 2*): > 200 µg/mL | MIC with Ampicillin (Escherichia coli 266; 1:1 mixture with ampicillin): 3.12 µg/mL | Response with Ampicillin (Escherichia coli 266; 1:1 mixture with ampicillin): Antagonism | MIC (Escherichia coli 266): > 200 µg/mL | MIC with Ampicillin (Klebsiella pneumonia): 100 µg/mL | Response with Ampicillin (Klebsiella pneumonia): Antagonism | MIC with Cefazolin (Klebsiella pneumonia): 1.56 µg/mL | Response with Cefazolin (Klebsiella pneumonia): No effect | MIC (Klebsiella pneumonia): > 200 µg/mL | MIC with Ampicillin (Proteus morgani): 1.56 µg/mL | MIC with Cefazolin (Proteus morgani): 25 µg/mL | Response with Cefazolin (Proteus morgani): Synergy | MIC (Proteus morgani): > 200 µg/mL | MIC with Ampicillin (Pseudomonas aeruginosa): > 100 µg/mL | MIC with Cefazolin (Pseudomonas aeruginosa): > 100 µg/mL | MIC (Pseudomonas aeruginosa): > 200 µg/mL | MIC with Ampicillin (Serratia marcescens; 1:1 mixture with ampicillin): 25 µg/mL | Response with Ampicillin (Serratia marcescens; 1:1 mixture with ampicillin): Antagonism | MIC with Cefazolin (Serratia marcescens; 1:1 mixture with cefazolin): 100 µg/mL | Response with Cefazolin (Serratia marcescens; 1:1 mixture with cefazolin): Synergy | MIC (Serratia marcescens): > 200 µg/mL | MIC with Ampicillin ([3]; 1:1 mixture with ampicillin): 3.12 µg/mL | Response with Ampicillin ([3]; 1:1 mixture with ampicillin): Additive | MIC with Cefazolin ([3]; 1:1 mixture with cefazolin): ≥ 0.2 µg/mL | Response with Cefazolin ([3]; 1:1 mixture with cefazolin): Synergy | MIC ([3]; Staphylococcus aureus, 18 h, read-out: MIC Alone, alone, Table II gives two separate tests): 6.25 µg/mL | MIC with Ampicillin (Staphylococcus aureus 5): ≤ 0.2 µg/mL | MIC (Staphylococcus aureus 5; [10]): 12.5 µg/mL | inhibition at 66 µM ([1]; pH 6.5, Penicillin G 33 μM): 66.7% | % Inhibition Beta-Lactam Hydrolysis ([4]; inhibitor 66 μM): 4.4% | % Inhibition Beta-Lactam Hydrolysis ([5]; inhibitor 16.5 μM): 0% | inhibition at 16.5 µM ([2]; pH 6.5, Ampicillin 33 μM, inhibitor 16.5 μM): 100% | inhibition at 66 µM [2, 7]: 100%

Structure (SMILES): CC1(C)S[C@@H]2[C@H](OS(=O)(=O)Cc3ccccc3)C(=O)N2[C@H]1C(=O)O [Sodium 6-Beta-(Alpha-Toluenesulfonyloxy)penicillanate]
MIC with Ampicillin (Enterobacter cloacae): 100 µg/mL | Response with Ampicillin (Enterobacter cloacae): Synergy | MIC with Cefazolin (Enterobacter cloacae; 1:1 mixture with cefazolin): 100 µg/mL | Response with Cefazolin (Enterobacter cloacae; 1:1 mixture with cefazolin): Synergy | MIC (Enterobacter cloacae): > 200 µg/mL | MIC with Ampicillin (Escherichia coli 129*; resistant variant): > 100 µg/mL | MIC with Cefazolin (Escherichia coli 129*; [8]): 100 µg/mL and 50 µg/mL | MIC (Escherichia coli 129*): > 200 µg/mL | MIC with Ampicillin (Escherichia coli 2*; [9]): > 100 µg/mL | MIC with Cefazolin (Escherichia coli 2*; resistant variant): 12.5 µg/mL and 6.25 µg/mL | MIC (Escherichia coli 2*): > 200 µg/mL | MIC with Ampicillin (Escherichia coli 266; 1:1 mixture with ampicillin): 3.12 µg/mL and 1.56 µg/mL | MIC (Escherichia coli 266): > 200 µg/mL | MIC with Ampicillin (Klebsiella pneumonia): > 100 µg/mL | Response with Ampicillin (Klebsiella pneumonia): Antagonism | MIC with Cefazolin (Klebsiella pneumonia): 0.78 µg/mL | Response with Cefazolin (Klebsiella pneumonia): Additive | MIC (Klebsiella pneumonia): > 200 µg/mL | MIC with Ampicillin (Proteus morgani): 3.12 µg/mL | MIC with Cefazolin (Proteus morgani): 50 µg/mL | Response with Cefazolin (Proteus morgani): Synergy | MIC (Proteus morgani): > 200 µg/mL | MIC with Ampicillin (Pseudomonas aeruginosa): > 100 µg/mL | MIC with Cefazolin (Pseudomonas aeruginosa): > 100 µg/mL | MIC (Pseudomonas aeruginosa): > 200 µg/mL | MIC with Cefazolin (Serratia marcescens; 1:1 mixture with cefazolin): > 100 µg/mL | MIC (Serratia marcescens): > 200 µg/mL | Response with Ampicillin ([3]; 1:1 mixture with ampicillin): Additive | MIC with Ampicillin (Staphylococcus aureus 5): ≤ 0.2 µg/mL | MIC (Staphylococcus aureus 5; Staphylococcus aureus, 5, 18 h, read-out: MIC Alone, alone): 6.25 µg/mL | MIC (Staphylococcus aureus 5; [10]): 100 µg/mL | inhibition at 16.5 µM ([1]; pH 6.5, Cephalexin 33 μM): 100% | inhibition at 16.5 µM ([1]; pH 6.5, Cephaloridine 4 μM): 100% | inhibition at 4 µM ([1]; pH 6.5, Cephaloridine 33 μM, inhibitor 4 μM): 93.7% | inhibition at 16.5 µM ([1]; pH 6.5, Cephaloridine 33 μM): 98.3% | inhibition at 16.5 µM ([1]; pH 6.5, Penicillin G 33 μM): 96% | inhibition at 66 µM ([1]; pH 6.5, Penicillin G 33 μM): 96% | % Inhibition Beta-Lactam Hydrolysis ([4]; inhibitor 16.5 μM): 14.0% | % Inhibition Beta-Lactam Hydrolysis ([4]; inhibitor 66 μM): 15.8% | % Inhibition Beta-Lactam Hydrolysis ([5]; inhibitor 16.5 μM): 3.0% | % Inhibition Beta-Lactam Hydrolysis ([5]; inhibitor 66 μM): 0% | inhibition at 16.5 µM ([6]; Cephaloridine 16.5 μM, inhibitor 16.5 μM): 92.6% | inhibition at 66 µM ([6]; Penicillin G 33 μM, inhibitor 66 μM): 100% | % Inhibition Beta-Lactam Hydrolysis ([2]; Ampicillin 33 μM, inhibitor 16.5 μM): 40.3% and 78% and 63.3% | % Inhibition Beta-Lactam Hydrolysis ([2]; Ampicillin 33 μM, inhibitor 66 μM): 91.4% and 91% | inhibition at 66 µM [2, 7]: 85% | inhibition at 66 µM ([2]; pH 6.5, Preincubation experiment (10 minutes), Ampicillin 33 μM, inhibitor 66 μM): 87.2%
